Data: the supplement of paper PMC10627819

What was measured:
S. aureus DSM 20231 [1] = experiment: Bliss interaction score (quartile over a dose matrix) (fitness difference); higher = more antagonism (negative = synergy)
Outline: (§1)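 Quartiles of the Bliss score were taken over technical, biological and donor/recipient replicates. That score is observed fitness minus the product of the single-drug fitness values, which were inferred from combination data. Fitness itself is OD595 at entry into stationary phase divided by the plate's robust no-drug mean, with a cap at 1.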

S. aureus Newman [2] = experiment: as above
Outline: as §1

B. subtilis 168 = experiment: as above
Outline: as §1

S. pneumoniae D39V [3] = experiment: as above
Outline: as §1

S. aureus DSM 20231 [4] = experiment: fitness (endpoint OD595 vs no drug) (fraction); higher = more growth
Outline: (§2)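 Volumes were 30 µl per well, or 55 µl for S. pneumoniae, in 384-well plates inoculated at OD595 0.01. Media were TSB, LB Lennox or CY at 37 °C, and OD595 was read every 30 min for 14 h with first-reading background subtraction. Fitness is the ratio of optical density at stationary-phase entry to the robust mean of no-drug controls. That ratio is capped at 1.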

S. aureus Newman [5] = experiment: as above
Outline: as §2

S. pneumoniae D39V [6] = experiment: as above
Outline: as §2
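Throughout, for Bliss interaction score (quartile over a dose matrix): first quartile when negative (synergy) and third quartile when positive (antagonism).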

CO/N=C(\C(=O)N[C@@H]1C(=O)N2C(C(=O)[O-])=C(C[N+]3(C)CCCC3)CS[C@H]12)c1csc(N)n1 [Cefepime] + CN1C2=CC=CC=C2N=C3C1=CC=CC3=O [Pyocyanin]
Details	Bliss interaction score
B. subtilis 168	0.0781
S. aureus DSM 20231 [1]	-0.078
S. aureus Newman [2]	0.0752
S. pneumoniae D39V [3]	0.126

Details	fitness
S. aureus DSM 20231 [4], first compound 0.125 µg/mL, partner 1.25 µg/mL	0.854
S. aureus DSM 20231 [4], first compound 0.125 µg/mL, partner 2.5 µg/mL	0.846
S. aureus DSM 20231 [4], first compound 0.125 µg/mL, partner 5 µg/mL	0.639
S. aureus DSM 20231 [4], first compound 0.25 µg/mL, partner 1.25 µg/mL	0.837
S. aureus DSM 20231 [4], first compound 0.25 µg/mL, partner 2.5 µg/mL	0.831
S. aureus DSM 20231 [4], first compound 0.25 µg/mL, partner 5 µg/mL	0.564
S. aureus DSM 20231 [4], first compound 0.5 µg/mL, partner 1.25 µg/mL	0.786
S. aureus DSM 20231 [4], first compound 0.5 µg/mL, partner 5 µg/mL	0.571
S. aureus Newman [5], first compound 0.125 µg/mL, partner 1.25 µg/mL	0.85
S. aureus Newman [5], first compound 0.125 µg/mL, partner 2.5 µg/mL	0.819
S. aureus Newman [5], first compound 0.125 µg/mL, partner 5 µg/mL	0.56
S. aureus Newman [5], first compound 0.25 µg/mL, partner 1.25 µg/mL	0.804
S. aureus Newman [5], first compound 0.25 µg/mL, partner 2.5 µg/mL	0.783
S. aureus Newman [5], first compound 0.25 µg/mL, partner 5 µg/mL	0.508
S. aureus Newman [5], first compound 0.5 µg/mL, partner 1.25 µg/mL	0.748
S. aureus Newman [5], first compound 0.5 µg/mL, partner 2.5 µg/mL	0.702
S. aureus Newman [5], first compound 0.5 µg/mL, partner 5 µg/mL	0.535
S. pneumoniae D39V [6], first compound 0.007 µg/mL, partner 0.325 µg/mL	≥ 1
S. pneumoniae D39V [6], first compound 0.007 µg/mL, partner 0.65 µg/mL	≥ 1
S. pneumoniae D39V [6], first compound 0.007 µg/mL, partner 1.3 µg/mL	0.963
S. pneumoniae D39V [6], first compound 0.014 µg/mL, partner 0.325 µg/mL	≥ 1
S. pneumoniae D39V [6], first compound 0.014 µg/mL, partner 0.65 µg/mL	0.997
S. pneumoniae D39V [6], first compound 0.014 µg/mL, partner 1.3 µg/mL	0.961
S. pneumoniae D39V [6], first compound 0.028 µg/mL, partner 0.325 µg/mL	0.946
S. pneumoniae D39V [6], first compound 0.028 µg/mL, partner 0.65 µg/mL	0.974
S. pneumoniae D39V [6], first compound 0.028 µg/mL, partner 1.3 µg/mL	0.943

fitness, S. pneumoniae D39V [6], one replicate
Details	first compound 0.0078 µg/mL	first compound 0.0155 µg/mL	first compound 0.031 µg/mL
partner 0.325 µg/mL	≥ 1	≥ 1	0.786
partner 0.65 µg/mL	≥ 1	≥ 1	0.907

CC1(C)S[C@@H]2[C@H](NC(=O)[C@H](N)c3ccc(O)cc3)C(=O)N2[C@H]1C(=O)O [Amoxicillin] + C[C@@H]1O[C@@H]1P(=O)(O)O [Fosfomycin]
Details	Bliss interaction score
B. subtilis 168	0.102
S. aureus DSM 20231 [1]	-0.169
S. aureus Newman [2]	0.0512
S. pneumoniae D39V [3]	-0.113

Details	fitness
S. aureus DSM 20231 [4], first compound 0.0625 µg/mL, partner 0.781 µg/mL	0.469
S. aureus DSM 20231 [4], first compound 0.0625 µg/mL, partner 1.562 µg/mL	0.369
S. aureus DSM 20231 [4], first compound 0.0625 µg/mL, partner 3.124 µg/mL	0.0511
S. aureus DSM 20231 [4], first compound 0.125 µg/mL, partner 0.781 µg/mL	0.278
S. aureus DSM 20231 [4], first compound 0.125 µg/mL, partner 1.562 µg/mL	0.0267
S. aureus DSM 20231 [4], first compound 0.125 µg/mL, partner 3.124 µg/mL	0.0388
S. aureus DSM 20231 [4], first compound 0.25 µg/mL, partner 0.781 µg/mL	0.0416
S. aureus DSM 20231 [4], first compound 0.25 µg/mL, partner 1.562 µg/mL	0.0638
S. aureus DSM 20231 [4], first compound 0.25 µg/mL, partner 3.124 µg/mL	0.038
S. aureus Newman [5], first compound 0.0625 µg/mL, partner 0.781 µg/mL	0.612
S. aureus Newman [5], first compound 0.0625 µg/mL, partner 1.562 µg/mL	0.506
S. aureus Newman [5], first compound 0.125 µg/mL, partner 0.781 µg/mL	0.597
S. aureus Newman [5], first compound 0.125 µg/mL, partner 3.124 µg/mL	0.185
S. aureus Newman [5], first compound 0.25 µg/mL, partner 0.781 µg/mL	0.567
S. aureus Newman [5], first compound 0.25 µg/mL, partner 3.124 µg/mL	0.096
S. pneumoniae D39V [6], first compound 0.0008 µg/mL, partner 1.25 µg/mL	0.938
S. pneumoniae D39V [6], first compound 0.0008 µg/mL, partner 2.5 µg/mL	0.893
S. pneumoniae D39V [6], first compound 0.0008 µg/mL, partner 5 µg/mL	0.803
S. pneumoniae D39V [6], first compound 0.0015 µg/mL, partner 1.25 µg/mL	0.914
S. pneumoniae D39V [6], first compound 0.0015 µg/mL, partner 2.5 µg/mL	0.887
S. pneumoniae D39V [6], first compound 0.0015 µg/mL, partner 5 µg/mL	0.672
S. pneumoniae D39V [6], first compound 0.003 µg/mL, partner 1.25 µg/mL	0.877
S. pneumoniae D39V [6], first compound 0.003 µg/mL, partner 2.5 µg/mL	0.834
S. pneumoniae D39V [6], first compound 0.003 µg/mL, partner 5 µg/mL	0.531

fitness, one replicate
Details	partner 0.781 µg/mL	partner 1.25 µg/mL	partner 1.562 µg/mL	partner 2.5 µg/mL	partner 3.124 µg/mL	partner 5 µg/mL
S. aureus DSM 20231 [4], first compound 0.5 µg/mL	0.0154	–	0.0129	–	0.0057	–
S. pneumoniae D39V [6], first compound 0.006 µg/mL	–	0.339	–	0.279	–	0.146
